Here are results for one molecule from patent US4141986A, “Antibiotics 890A2 and 890A5” (Merck & Co., Inc., priority 1977, dated 1979).

The assay relates to Vibrio percolans ATCC 8461. Nature of the assay: Assay procedure for 890 Assay Units, disc-diffusion with cephaloridine standard. Format: cell-based. How it is done:
A conventional agar plate disc-diffusion method is employed using Vibrio percolans ATCC 8461 as tester organism. Cephaloridine is employed as a standard. Plates containing Vibrio percolans ATCC 8461 are prepared as follows. A culture of Vibrio percolans ATCC 8461 is incubated in nutrient broth-yeast extract overnight on a rotary shaker at 28° C. and then diluted to a density of 60% transmittance at 660 nm. A 33.2 ml. portion of this diluted culture is added to 1 liter of a medium composed of nutrient agar plus 0.2% yeast extract maintained at 46° C. The inoculated agar-containing medium is poured into 100 × 15 mm. plastic-petri dishes, 10 ml. per dish, chilled, and maintained at 2°-4° C. for up to 5 days before use.
The concentration of cephaloridine which is equivalent to 1 unit/ml. of 890A is deterined by assay on plates prepared as above, but containing 5 ml. of inoculated medium per plate, as follows. Four concentrations of cephaloridine constitute the standard -- 3.12, 6.25, 12.5 and 25 mcg per ml. with the 12.5 mcg per ml. as a reference solution. The zone diameters on a 5 ml. plate for the standard are as follows:
A unit is defined as the amount of antibiotic per ml. producing a 25 mm. zone of inhibition on a 5 ml. plate as described in section I above. Therefore, in this assay a concentration of 2.5 mcg per ml. of cephaloridine is considered equivalent to 1 unit of 890A per ml. Since the slope of the line for cephaloridine is 4.0 calculations of the potency of a sample are made using a slope of 4.0.
In general terms: In agar diffusion tests the substance spreads into inoculated agar from a disc or well.

`O=C(Cc1cccs1)N[C@@H]1C(=O)N2C(C(=O)[O-])=C(C[n+]3ccccc3)CS[C@H]12` [cephaloridine, Cephaloridine]: the “concentration considered equivalent to 1 unit of 890A per ml.” value (25 mm. zone of inhibition on a 5 ml. plate) worked out at 2.5 mcg per ml. Further, the zone of inhibition at 3.12 µg/mL (Comamonas terrigena, ATCC8461, 3.12 mcg./ml., 5 ml. plate, read-out: Zone Diameter) is 16.8 mm. The zone of inhibition at 6.25 µg/mL (Comamonas terrigena, ATCC8461, 6.25 mcg./ml., 5 ml. plate, read-out: Zone Diameter) was found to be 22.3 mm. The zone of inhibition at 12.5 µg/mL (Comamonas terrigena, ATCC8461, 12.5 mcg./ml., 5 ml. plate, read-out: Zone Diameter) was 25 mm. Moreover, the zone of inhibition at 25 µg/mL (Comamonas terrigena, ATCC8461, 25 mcg./ml., 5 ml. plate, read-out: Zone Diameter) turned out to be 29.6 mm. Also, for the setting “zone diameter against concentration of the standard”, the “slope of the line” value is 4.0.
